Article PMC10224544, “Synthesis, Structural Elucidation and Pharmacological Applications of Cu(II) Heteroleptic Carboxylates” (Pharmaceuticals, 2023)

Tests used:
DPPH scavenging assay [1] = settings: for DPPH Free Radical Scavenging Ability: mean ± S.E.M, n = 3
Text: The antioxidant potential of the free acids and their Cu(II) carboxylates was explored via the DPPH method using ascorbic acid as a reference. The DPPH, with a single unpaired electron, is capable of accepting a hydrogen or electron and gives a strong absorption at 517 nm. The absorption generally decreases when it accepts a hydrogen or electron from an antioxidant, forming a stable molecule. The results given in Table 5 indicate that the compounds under study show a moderate level of antioxidant potential. This activity may be attributed to the various structural and electronic factors like coordination geometry, redox properties, chelate ring size, degree of unsaturation, etc.. The transfer of proton or electron from an antioxidant to DPPH results in the formation of species that undergo other reactions like coupling, fragmentation, and addition, which affect the rate and stoichiometry of the reaction.
The compounds under study were subjected to DPPH scavenging ability test as per cited literature. A 0.004% solution of reagent DPPH was added to the different concentrations of tested compounds (i.e., 125, 250, 500 and 1000 μg/mL) and the reaction mixture was incubated subsequently for about thirty minutes in dark. Ascorbic acid was used as positive control. The UV-3000 O.R.I. Germany was used to record the change in absorption of the reaction mixture at 517 nm and the percentage scavenging ability of the compounds under study was determined using formula: % scavenging activity =Absorbance of control−Absorbance of compounds /Absorbance of control×100
The experiments were repeated thrice. The GraphPad Prism® (version 4.0, Sandiego, CA, USA) was used to calculate the IC50 values.

[2] = Hydrogen peroxide scavenging assay; settings: for H2O2 free radical scavenging ability: mean ± S.E.M, n = 3
Experimental: In addition to DPPH the ligand acids and their complexes were also evaluated for their peroxide scavenging ability test. Hydrogen peroxide (H2O2) is a biologically important, non-radical reactive oxygen species (ROS) that can influence several cellular processes. It is a weak oxidizing agent and can inactivate a few enzymes directly, usually via oxidation of essential thiol (-SH) groups. It can cross cell membranes rapidly, and inside the cell, H2O2 probably reacts with Fe^2+ (and possibly Cu^2+) ions to form the hydroxyl radical, which may be the origin of many of its toxic effects. It is, therefore, biologically advantageous for cells to control the amount of hydrogen peroxide that is allowed to accumulate.
The ligand acids and their Cu(II) carboxylates were further subjected to H2O2 scavenging ability test potential by following the procedure as per cited literature. A 2 mM solution of H2O2 was made in 50 mM phosphate buffer having a pH 7.4. In the next step, 0.1 mL of the screened compounds was added to the 0.3 mL (50 mM) of phosphate buffer, then 0.6 mL of H2O2 was added and the solution was vortexed. After following the incubation period of 10 min, the absorption was 230 nm in comparison to the blank.

[3] = target: acetylcholinesterase (AChE) (Electrophorus electricus, UniProt O42275); test: biochemical; assay type: biochemical; settings: for Inhibition of Acetylcholinesterase (%AChE Activity): n = 3
Experimental: The synthesized compounds were evaluated for acetylcholinesterase (ACh) and butyrylcholinesterase (BCh) enzyme inhibitory activities.
(§1) The enzymes acetylcholinesterase (AChE) and butyrylcholinesterase (BChE) play an important role in the transfer of signals and physiological function. They assist acetylcholine to hydrolyze and produce choline and acetyl group in synaptic region. So, they are considered as targets in the management of Alzheimer’s disease. Herein, the compounds under study were evaluated for their potential to inhibit acetylthiocholine iodide (AChI) and butyrylthiocholine iodide (BChI) enzymes.
(§2) The well-known Ellman’s assay was implemented to evaluate the inhibitory potential using acetylthiocholine iodide (AChI) and butyrylthiocholine iodide (BChI) as substrates, respectively. The basic principle of the assay is the hydrolysis of acetylthiocholine iodide and butyrylthiocholine iodide by their corresponding enzymes, resulting in the formation of 5-thio-2-nitrobenzoate anion.
(§3) To carry out the assay, 0.1 M buffer solution with pH 8 was prepared as per the cited literature where the pH was adjusted using KOH (potassium hydroxide). Using the freshly prepared buffer and following the dilution, final concentrations of 0.03 U/mL for AChE (518 U/mg solid) and 0.01 U/mL for BChE (7–16 U/mg) were obtained. […] After that, the final solution of each of the AChE and BChE was prepared in distilled water in the presence of […] DTNB and were stored at 8 °C. The experiment was performed by taking 205 µL of inhibitor (tested compound) along with 5 µL of prepared solutions of enzymes, followed by the addition of 5 μL DTNB reagent. They were then incubated for about 15 min in a water bath at a temperature of 30 °C. Later on, 5 µL substrate solution was added to them which were subjected to absorption check at 412 nm. […] The temperature of the spectrophotometer was adjusted at 30 °C and then, following the reaction time of 4 min, the absorbance values were noted after regular intervals. The experiment was repeated, and change in absorption with time was used to calculate the percentage activity of enzyme and enzyme inhibitor [59]. The p values, or calculated probability levels, are categorized as: 5% (p < 0.05), 1% (p < 0.01) and 0.1% (p < 0.001). p < 0.05 means statistically significant and p < 0.001 means highly statistically significant.

[4] = target: butyrylcholinesterase (BChE) (Equus caballus, UniProt P81908); test: biochemical; settings: for inhibition of butyrylcholinesterase (% BChE activity): n = 3
Experimental: as §1, §2, §3

DPPH scavenging assay [5] = settings: Comp. Conc. 62.5 µg/mL; mean ± S.E.M, n = 3

Chain of butyrylcholinesterase (BChE) (P81908 whole entry): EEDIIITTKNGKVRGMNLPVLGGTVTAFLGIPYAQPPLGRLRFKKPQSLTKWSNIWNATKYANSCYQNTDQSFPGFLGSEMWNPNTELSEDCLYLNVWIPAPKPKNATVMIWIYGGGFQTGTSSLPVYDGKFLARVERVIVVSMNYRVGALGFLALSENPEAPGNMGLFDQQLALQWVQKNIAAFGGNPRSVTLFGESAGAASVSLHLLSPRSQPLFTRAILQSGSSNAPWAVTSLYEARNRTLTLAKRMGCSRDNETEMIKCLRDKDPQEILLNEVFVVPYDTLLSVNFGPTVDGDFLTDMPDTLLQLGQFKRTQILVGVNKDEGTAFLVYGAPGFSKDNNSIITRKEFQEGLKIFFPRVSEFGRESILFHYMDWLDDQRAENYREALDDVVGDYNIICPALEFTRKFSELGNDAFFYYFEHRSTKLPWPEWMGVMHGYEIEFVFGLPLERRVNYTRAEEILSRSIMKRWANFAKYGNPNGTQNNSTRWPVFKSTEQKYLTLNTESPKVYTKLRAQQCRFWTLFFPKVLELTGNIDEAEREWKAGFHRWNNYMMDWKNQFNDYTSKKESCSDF
Chain of acetylcholinesterase (AChE) (O42275 24-633): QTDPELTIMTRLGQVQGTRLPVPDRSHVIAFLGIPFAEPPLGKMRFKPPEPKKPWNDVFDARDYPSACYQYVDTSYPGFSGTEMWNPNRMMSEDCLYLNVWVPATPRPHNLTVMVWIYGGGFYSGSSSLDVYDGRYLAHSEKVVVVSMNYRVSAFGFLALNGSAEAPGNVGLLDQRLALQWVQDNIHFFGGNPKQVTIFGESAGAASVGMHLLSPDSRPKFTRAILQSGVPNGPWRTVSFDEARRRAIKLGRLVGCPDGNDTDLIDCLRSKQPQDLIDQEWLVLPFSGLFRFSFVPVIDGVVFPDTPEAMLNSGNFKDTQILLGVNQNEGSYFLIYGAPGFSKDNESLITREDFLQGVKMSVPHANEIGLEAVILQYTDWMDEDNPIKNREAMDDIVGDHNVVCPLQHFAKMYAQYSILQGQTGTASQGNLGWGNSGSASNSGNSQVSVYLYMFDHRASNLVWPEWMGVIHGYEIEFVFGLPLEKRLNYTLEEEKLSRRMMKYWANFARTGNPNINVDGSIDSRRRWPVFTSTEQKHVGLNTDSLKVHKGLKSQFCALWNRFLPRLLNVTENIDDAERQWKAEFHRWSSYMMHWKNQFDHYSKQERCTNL

SMILES: N#Cc1cccnc1.N#Cc1cccnc1.O=C([O-])Cc1cccc(Cl)c1.O=C([O-])Cc1cccc(Cl)c1.O=C([O-])Cc1cccc(Cl)c1.O=C([O-])Cc1cccc(Cl)c1.[Cu+2].[Cu+2] [Complex 4, Cu2(3-ClC6H4COO)4(3-CNPy)2]
- IC50, DPPH Free Radical Scavenging Ability (DPPH scavenging assay [1]): 8.45 µg/mL
- DPPH Free Radical Scavenging Ability (DPPH scavenging assay [1]; Comp. Conc. 125 µg/mL): 68.30 ± 0.64 %
- DPPH Free Radical Scavenging Ability (DPPH scavenging assay [1]; Comp. Conc. 250 µg/mL): 73.34 ± 0.63 %
- DPPH Free Radical Scavenging Ability (DPPH scavenging assay [1]; Comp. Conc. 500 µg/mL): 78.30 ± 0.64 %
- DPPH Free Radical Scavenging Ability (DPPH scavenging assay [1]; Comp. Conc. 1000 µg/mL): 83.17 ± 0.72 %
- IC50, H2O2 free radical scavenging ability [2]: 8.71 µg/mL
- H2O2 free radical scavenging ability ([2]; Comp. Conc. 62.5 µg/mL): 63.47 ± 0.56 %
- H2O2 free radical scavenging ability ([2]; Comp. Conc. 125 µg/mL): 67.74 ± 0.61 %
- H2O2 free radical scavenging ability ([2]; Comp. Conc. 250 µg/mL): 73.67 ± 0.61 %
- H2O2 free radical scavenging ability ([2]; Comp. Conc. 500 µg/mL): 78.76 ± 0.58 %
- H2O2 free radical scavenging ability ([2]; Comp. Conc. 1000 µg/mL): 85.00 ± 0.30 ^⸸ %
- IC50, Inhibition of Acetylcholinesterase [3]: 6 µg/mL
- Inhibition of Acetylcholinesterase (%AChE Activity) ([3]; Comp. Conc. 62.5 µg/mL): 67.90 ± 1.16 %
- Inhibition of Acetylcholinesterase (%AChE Activity) ([3]; Comp. Conc. 125 µg/mL): 72.34 ± 0.55 %
- Inhibition of Acetylcholinesterase (%AChE Activity) ([3]; Comp. Conc. 250 µg/mL): 78.36 ± 0.49 ^⸸ %
- Inhibition of Acetylcholinesterase (%AChE Activity) ([3]; Comp. Conc. 500 µg/mL): 83.39 ± 0.49 %
- Inhibition of Acetylcholinesterase (%AChE Activity) ([3]; Comp. Conc. 1000 µg/mL): 89.39 ± 0.60 %
- IC50, inhibition of butyrylcholinesterase [4]: 03 µg/mL
- inhibition of butyrylcholinesterase (% BChE activity) ([4]; Comp. Conc. 62.5 µg/mL): 68.52 ± 0.38 %
- inhibition of butyrylcholinesterase (% BChE activity) ([4]; Comp. Conc. 125 µg/mL): 72.64 ± 0.16 %
- inhibition of butyrylcholinesterase (% BChE activity) ([4]; Comp. Conc. 250 µg/mL): 77.61 ± 1.70 %
- inhibition of butyrylcholinesterase (% BChE activity) ([4]; Comp. Conc. 500 µg/mL): 81.94 ± 0.45 %
- inhibition of butyrylcholinesterase (% BChE activity) ([4]; Comp. Conc. 1000 µg/mL): 86.47 ± 0.22 ^⸸ %
- DPPH Free Radical Scavenging Ability (DPPH scavenging assay [5]): 61.93 ± 1.13 %
